SMILES strings stand for the structures. A value given as a limit tells only on which side of the number the result lay.

In general, IC50 refers to the concentration that gives 50% inhibition.

Experiment [1] deals with Calpain activity in SH-SY5Y cells. The experiment in a line: SH-SY5Y spectrin breakdown product (SBDP-150) western blot assay. The format is cell-based. Conditions: Homo sapiens, read-out: SH-SY5Y Spectrin IC50. For orientation: A western blot detects proteins with antibodies after separation by electrophoresis.
The target of experiment [2] is T1, Human Calpain 1/NS1 (Homo sapiens, UniProt P07384).
T1 sequence (P07384 1-714): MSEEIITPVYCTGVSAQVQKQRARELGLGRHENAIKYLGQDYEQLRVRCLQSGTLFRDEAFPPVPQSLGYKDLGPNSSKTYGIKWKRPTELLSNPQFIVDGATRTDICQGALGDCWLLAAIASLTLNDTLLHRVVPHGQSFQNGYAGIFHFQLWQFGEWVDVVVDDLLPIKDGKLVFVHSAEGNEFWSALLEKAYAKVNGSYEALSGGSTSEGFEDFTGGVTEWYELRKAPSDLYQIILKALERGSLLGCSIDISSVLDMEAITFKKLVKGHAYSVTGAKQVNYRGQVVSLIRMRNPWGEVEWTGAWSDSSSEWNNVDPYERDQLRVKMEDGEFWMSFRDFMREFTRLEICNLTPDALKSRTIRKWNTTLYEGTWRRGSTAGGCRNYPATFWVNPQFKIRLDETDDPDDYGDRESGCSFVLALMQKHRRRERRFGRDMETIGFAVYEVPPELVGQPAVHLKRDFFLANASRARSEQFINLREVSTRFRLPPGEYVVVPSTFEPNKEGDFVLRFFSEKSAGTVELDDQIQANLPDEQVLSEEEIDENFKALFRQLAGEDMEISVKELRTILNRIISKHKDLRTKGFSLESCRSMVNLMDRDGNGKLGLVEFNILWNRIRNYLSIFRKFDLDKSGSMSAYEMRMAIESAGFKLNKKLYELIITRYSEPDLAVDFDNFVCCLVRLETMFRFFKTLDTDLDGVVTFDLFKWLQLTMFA
T1 sequence (P04632 1-268 partner): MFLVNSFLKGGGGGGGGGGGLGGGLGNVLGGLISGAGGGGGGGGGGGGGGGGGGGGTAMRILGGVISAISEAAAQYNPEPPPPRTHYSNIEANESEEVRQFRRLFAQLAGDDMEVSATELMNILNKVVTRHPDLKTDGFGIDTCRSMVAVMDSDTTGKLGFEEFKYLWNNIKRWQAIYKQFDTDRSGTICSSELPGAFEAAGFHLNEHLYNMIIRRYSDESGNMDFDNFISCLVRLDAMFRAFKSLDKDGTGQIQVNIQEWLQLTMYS
The experiment in a line: Calpain inhibition, continuous fluorescence (FRET substrate) assay, calpain 1. Conditions: SensoLyte 520 FRET substrate, 25C. The experiment is classed as biochemical. As to the method: (§1) Calpain 1, 2, and 9 activity and inhibition thereof was assessed by means of a continuous fluorescence assay. The SensoLyte 520 Calpain substrate (Anaspec Inc) was optimized for detecting calpain activity. This substrate contains an internally quenched 5-FAM/QXLTM 520 FRET pair. Calpains 1, 2, and 9 cleave the FRET substrate into two separate fragments resulting in an increase of 5-FAM fluorescence that is proportional to calpain activity Assays were typically setup in black 384-well plates using automated liquid handling as follows. Calpain assay base buffer typically contains 50 mM Tris, pH 7.5, 100 mM NaCl and 1 mM DTT. Inhibitors were serially diluted in DMSO and used to setup 2× mixtures with calpains in the aforementioned buffer. After incubation at ambient temperature (25C), the reaction was initiated by adding a 2× mix of the fluorescent peptide substrate and CaCl2) (required for in-situ calpain activation) in the same buffer. Reaction progress curve data were typically collected for 10 min using excitation/emission wavelengths of 490 nm/520 nm on SpectraMax i3× or the FLIPR-Tetra plate readers (Molecular Devices Inc). Reaction rates were calculated from progress curve slopes typically over 1-5 min. Dose response curves (rate vs. log inhibitor concentration) were typically fit to a 4-parameter logistic function to extract IC50 values.

Experiment [3] concerns the target T2, Human Calpain 2/NS1 (Homo sapiens, UniProt P17655).
T2 sequence (P17655 1-700): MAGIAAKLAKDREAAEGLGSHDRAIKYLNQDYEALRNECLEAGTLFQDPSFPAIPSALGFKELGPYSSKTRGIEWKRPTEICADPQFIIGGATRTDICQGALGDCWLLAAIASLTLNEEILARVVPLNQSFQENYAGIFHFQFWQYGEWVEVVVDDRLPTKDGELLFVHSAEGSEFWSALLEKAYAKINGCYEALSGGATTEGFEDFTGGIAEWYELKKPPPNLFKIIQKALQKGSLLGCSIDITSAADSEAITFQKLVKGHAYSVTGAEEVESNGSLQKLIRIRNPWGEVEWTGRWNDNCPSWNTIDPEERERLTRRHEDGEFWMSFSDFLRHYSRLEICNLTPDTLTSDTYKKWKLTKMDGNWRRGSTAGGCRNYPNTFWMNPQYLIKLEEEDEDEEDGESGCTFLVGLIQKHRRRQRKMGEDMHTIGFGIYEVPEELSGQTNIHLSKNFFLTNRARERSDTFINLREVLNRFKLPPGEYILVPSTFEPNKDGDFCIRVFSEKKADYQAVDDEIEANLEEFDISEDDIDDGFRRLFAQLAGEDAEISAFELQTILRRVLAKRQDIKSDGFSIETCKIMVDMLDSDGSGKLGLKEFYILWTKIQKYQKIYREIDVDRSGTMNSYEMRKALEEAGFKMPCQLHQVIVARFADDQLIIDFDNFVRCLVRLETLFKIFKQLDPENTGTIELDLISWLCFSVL
T2 sequence (P04632 1-268 partner): T1 sequence (P04632 1-268 partner)
The experiment in a line: Calpain inhibition, continuous fluorescence (FRET substrate) assay, calpain 2. The experiment is classed as biochemical. Conditions: SensoLyte 520 FRET substrate, 25C. The procedure: as §1

Experiment [4] deals with Calpain activity in SH-SY5Y cells. As to the kind of experiment: SH-SY5Y Suc-LLVY-AMC fluorescence assay. Conditions: Homo sapiens, read-out: SH-SY5Y + AMC IC50. The experiment is classed as cell-based.
For experiment [5], the target named is T3, Human Calpain 9/NS1 (Homo sapiens, UniProt O14815).
T3 sequence (O14815 1-690): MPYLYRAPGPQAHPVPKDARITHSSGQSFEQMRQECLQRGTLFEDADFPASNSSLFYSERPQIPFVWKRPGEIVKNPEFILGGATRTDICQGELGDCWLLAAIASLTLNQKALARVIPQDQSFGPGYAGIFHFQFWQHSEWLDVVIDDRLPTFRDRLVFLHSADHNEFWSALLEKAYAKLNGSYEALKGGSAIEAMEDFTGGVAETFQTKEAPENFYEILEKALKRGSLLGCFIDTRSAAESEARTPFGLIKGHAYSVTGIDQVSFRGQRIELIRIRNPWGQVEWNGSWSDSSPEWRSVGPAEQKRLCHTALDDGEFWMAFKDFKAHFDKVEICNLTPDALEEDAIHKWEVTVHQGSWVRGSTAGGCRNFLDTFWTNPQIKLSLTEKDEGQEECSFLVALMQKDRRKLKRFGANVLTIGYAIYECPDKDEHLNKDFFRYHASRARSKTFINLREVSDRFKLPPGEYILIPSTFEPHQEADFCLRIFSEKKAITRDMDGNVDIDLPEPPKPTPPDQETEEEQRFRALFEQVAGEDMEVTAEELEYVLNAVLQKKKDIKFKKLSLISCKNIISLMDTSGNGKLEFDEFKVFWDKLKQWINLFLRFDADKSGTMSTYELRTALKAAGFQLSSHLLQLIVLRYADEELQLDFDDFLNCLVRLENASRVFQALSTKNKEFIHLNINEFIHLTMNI
T3 sequence (P04632 1-268 partner): T1 sequence (P04632 1-268 partner)
The experiment in a line: Calpain inhibition, continuous fluorescence (FRET substrate) assay, calpain 9. Conditions: SensoLyte 520 FRET substrate, 25C. The experiment is classed as biochemical. As to the method: as §1

[6] abbreviates: SH-SY5Y cells, 25 uM A23187, SBDP-150 western blot.
The mark [7] stands for this setting: SH-SY5Y cells, 100 uM Suc-LLVY-AMC.

In the case of `Cn1cc(C(=O)NC(Cc2ccccc2)C(=O)C(N)=O)c(-c2nccc3ccccc23)n1` (stereo not drawn) [Compound 10, N-(4-AMINO-3,4-DIOXO-1-PHENYLBUTAN-2-YL)-3-(ISOQUINOLIN-1-YL)-1-METHYL-1H-PYRAZOLE-4-CARBOXAMIDE], the 50% inhibitory concentration (IC50) in experiment [1] (setting [6]) was more than 25 µM; in experiment [2] it was 3 to 10 µM; in experiment [3], less than 3 µM; in experiment [4] (setting [7]), more than 25 µM; in experiment [5] it was less than 3 µM.

Take `Cc1cc(C(=O)NC(Cc2ccccc2)C(=O)C(N)=O)n(-c2ncc3ccccc3n2)n1` (stereo not drawn) [Compound 11, N-(4-AMINO-3,4-DIOXO-1-PHENYLBUTAN-2-YL)-3-METHYL-1-(QUINAZOLIN-2-YL)-1H-PYRAZOLE-5-CARBOXAMIDE]: the 50% inhibitory concentration (IC50) in experiment [1] (setting [6]) was 10 to 25 µM; in experiment [2] it was less than 3 µM; in experiment [3], less than 3 µM; in experiment [4] (setting [7]) it was less than 10 µM; in experiment [5], less than 3 µM.

Regarding `COc1cccc(-c2nn(C)cc2C(=O)NC(Cc2ccccc2)C(=O)C(N)=O)c1OC` (stereo not drawn) [Compound 12, N-(4-AMINO-3,4-DIOXO-1-PHENYLBUTAN-2-YL)-3-(2,3-DIMETHOXYPHENYL)-1-METHYL-1H-PYRAZOLE-4-CARBOXAMIDE], the IC50 in experiment [1] (setting [6]) is more than 25 µM; in experiment [2] it was 3 to 10 µM; in experiment [3], less than 3 µM; in experiment [4] (setting [7]), more than 25 µM; in experiment [5], less than 3 µM.

As to `Cn1cc(C(=O)NC(Cc2ccccc2)C(=O)C(N)=O)c(-c2cnc3ccccc3n2)n1` (stereo not drawn) [Compound 13, N-(4-AMINO-3,4-DIOXO-1-PHENYLBUTAN-2-YL)-1-METHYL-3-(QUINOXALIN-2-YL)-1H-PYRAZOLE-4-CARBOXAMIDE], the 50% inhibitory concentration (IC50) was more than 25 µM in experiment [1] (setting [6]); less than 3 µM in experiment [2]; less than 3 µM in experiment [3]; more than 25 µM in experiment [4] (setting [7]); less than 3 µM in experiment [5].

In the case of `Cn1cc(C(=O)NC(Cc2ccccc2)C(=O)C(N)=O)c(-c2cccc3cccnc23)n1` (stereo not drawn) [Compound 14], the IC50 in experiment [1] (setting [6]) was more than 25 µM; in experiment [2] it was less than 3 µM; in experiment [3] it was less than 3 µM; in experiment [4] (setting [7]) it was more than 25 µM; in experiment [5], less than 3 µM.

Turning to `Cn1cc(C(=O)NC(Cc2ccccc2)C(=O)C(N)=O)c(-c2cc(Cl)oc2Cl)n1` (stereo not drawn) [Compound 15, N-(4-AMINO-3,4-DIOXO-1-PHENYLBUTAN-2-YL)-3-(2,5-DICHLOROFURAN-3-YL)-1-METHYL-1H-PYRAZOLE-4-CARBOXAMIDE], the half-inhibitory concentration (IC50) in experiment [1] (setting [6]) is 10 to 25 µM; in experiment [2], less than 3 µM; in experiment [3], less than 3 µM; in experiment [4] (setting [7]) it was less than 10 µM; in experiment [5] it was less than 3 µM.

With `Cn1cc(C(=O)NC(Cc2ccccc2)C(=O)C(N)=O)c(-c2cccc3[nH]ncc23)n1` (stereo not drawn) [Compound 16, N-(4-AMINO-3,4-DIOXO-1-PHENYLBUTAN-2-YL)-3-(1H-INDAZOL-4-YL)-1-METHYL-1H-PYRAZOLE-4-CARBOXAMIDE], the IC50 in experiment [1] (setting [6]) was 10 to 25 µM; in experiment [2] it was less than 3 µM; in experiment [3] it was less than 3 µM; in experiment [4] (setting [7]), 10 to 25 µM; in experiment [5] it was less than 3 µM.

Consider `CNC(=O)c1cccc(-c2nn(C)cc2C(=O)NC(Cc2ccccc2)C(=O)C(N)=O)c1` (stereo not drawn) [Compound 17], for which the half-maximal inhibitory concentration (IC50) in experiment [1] (SH-SY5Y) was more than 25 µM; in experiment [2], less than 3 µM; in experiment [3], less than 3 µM; in experiment [4] (SH-SY5Y), 10 to 25 µM; in experiment [5], less than 3 µM.

Consider `NC(=O)C(=O)C(Cc1ccccc1)NC(=O)c1cn(C(F)F)nc1-c1cccc2cccnc12` (stereo not drawn) [Compound 18, N-(4-AMINO-3,4-DIOXO-1-PHENYLBUTAN-2-YL)-1-(DIFLUOROMETHYL)-3-(QUINOLIN-8-YL)-1H-PYRAZOLE-4-CARBOXAMIDE], for which the half-maximal inhibitory concentration (IC50) is more than 25 µM in experiment [1] (setting [6]); less than 3 µM in experiment [2]; less than 3 µM in experiment [3]; less than 10 µM in experiment [4] (setting [7]); less than 3 µM in experiment [5].

As for `Cn1cc(C(=O)NC(Cc2ccccc2)C(=O)C(N)=O)c(-c2ccoc2Cl)n1` (stereo not drawn) [Compound 19, N-(4-AMINO-3,4-DIOXO-1-PHENYLBUTAN-2-YL)-3-(2-CHLOROFURAN-3-YL)-1-METHYL-1H-PYRAZOLE-4-CARBOXAMIDE], the IC50 in experiment [1] (setting [6]) was more than 25 µM; in experiment [2], less than 3 µM; in experiment [3], less than 3 µM; in experiment [4] (setting [7]) it was less than 10 µM; in experiment [5] it was less than 3 µM.

Turning to `NC(=O)C(=O)C(Cc1ccccc1)NC(=O)c1cn(C(F)F)nc1-c1ccoc1Cl` (stereo not drawn) [Compound 20, N-(4-AMINO-3,4-DIOXO-1-PHENYLBUTAN-2-YL)-3-(2-CHLOROFURAN-3-YL)-1-(DIFLUOROMETHYL)-1H-PYRAZOLE-4-CARBOXAMIDE], the IC50 in experiment [1] (setting [6]) is less than 10 µM; in experiment [2] it was less than 3 µM; in experiment [3], less than 3 µM; in experiment [4] (setting [7]) it was less than 10 µM; in experiment [5], less than 3 µM.

As for `NC(=O)C(=O)C(Cc1ccccc1)NC(=O)c1cn(C(F)F)nc1-c1coc(Cl)c1` (stereo not drawn) [Compound 21, N-(4-AMINO-3,4-DIOXO-1-PHENYLBUTAN-2-YL)-3-(5-CHLOROFURAN-3-YL)-1-(DIFLUOROMETHYL)-1H-PYRAZOLE-4-CARBOXAMIDE], the concentration for half-maximal inhibition (IC50) is less than 10 µM in experiment [1] (setting [6]); less than 3 µM in experiment [2]; less than 3 µM in experiment [3]; less than 10 µM in experiment [4] (setting [7]); less than 3 µM in experiment [5].
